Data from the SangsterLogP compilation.

Experiment: method code SF-GLC, from DOI: 10.1016/0048-3575(78)90090-1

Structure (SMILES)	logP
CCOC1C(Cl)C(Cl)C(Cl)C(Cl)C1Cl (stereo not given)	3.69
ClC1C(Cl)C(Cl)C(Br)C(Cl)C1Cl (stereo not given)	3.74
COC1C(Cl)C(Cl)C(Cl)C(Cl)C1OC (stereo not given)	2.55
ClC1CC(Cl)C(Cl)CC1Cl (stereo not given)	2.82
ClC1C(Cl)C(Cl)C(I)C(Cl)C1Cl (stereo not given)	3.96
FC1C(Cl)C(Cl)C(Cl)C(Cl)C1Cl (stereo not given)	3.19
COC1C(Cl)C(Cl)C(Cl)C(Cl)C1Cl (stereo not given)	3.14
ClC1C(Cl)C(Cl)C(Br)C(Br)C1Cl (stereo not given)	3.88
CC1C(Cl)C(Cl)C(C)C(Cl)C1Cl (stereo not given)	4.4
CC(=O)Oc1c(Cl)c(Cl)c(Cl)c(Cl)c1Cl	3.4
COC1C(Cl)C(Cl)C(OC)C(Cl)C1Cl (stereo not given)	3.15
CC1C(Cl)C(Cl)C(Cl)C(Cl)C1Cl (stereo not given)	4.04
COC1C(Cl)C(Cl)C(Cl)C(OC)C1OC (stereo not given)	1.87
COC1CC(Cl)C(Cl)C(Cl)C1Cl (stereo not given)	2.99
FC(F)(F)COC1C(Cl)C(Cl)C(Cl)C(Cl)C1Cl (stereo not given)	4.06
FC1C(Cl)C(Cl)C(Cl)C(Cl)C1Br (stereo not given)	3.28
OC1C(Cl)C(Cl)C(Cl)C(Cl)C1Cl (stereo not given)	2.54
ClC1C(Cl)C(Br)C(Cl)C(Cl)C1Br (stereo not given)	3.98
ClC1CC(Cl)C(Cl)C(Cl)C1Cl (stereo not given)	3.53
OCC1C(Cl)C(Cl)C(Cl)C(Cl)C1Cl (stereo not given)	2.94
